From PubChem BioAssay AID256 (DTP/NCI, 2004)
Where “and” joins values, the source holds several entries; their conditions need not be identical. Equal entries are not always repeated. Inconclusive results and toxic doses are left out. The calls were made as follows: active = survival T/C of 150% or more; inactive = T/C below 125% in these data.

System: CD2F1 mice, L1210 leukemia ip, survival T/C
Experiment: NCI In Vivo Anticancer Drug Screen. Data for tumor model L1210 Leukemia (intraperitoneal) in CD2F1 (CDF1) mice
Settings: higher = longer survival
How it was run: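 Antitumor effect is scored in animals hosting a serially transplanted tumor. Values compare compound-dosed animals against vehicle-only controls as a simple quotient.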

[1] = endpoint: mean survival time, dose: 100.0 mg/kg/injection, schedule: Q01DX001 (ip), vehicle: saline
[2] = endpoint: mean survival time, dose: 200.0 mg/kg/injection, schedule: Q01DX001 (ip), vehicle: saline
[3] = endpoint: mean survival time, dose: 400.0 mg/kg/injection, schedule: Q01DX001 (ip), vehicle: saline
[4] = endpoint: mean survival time, dose: 100.0 mg/kg/injection, schedule: Q01DX009 (ip), vehicle: saline with Tween-80
[5] = endpoint: mean survival time, dose: 100.0 mg/kg/injection, schedule: Q04DX003 (ip), vehicle: saline with Tween-80
[6] = endpoint: mean survival time, dose: 200.0 mg/kg/injection, schedule: Q01DX009 (ip), vehicle: saline with Tween-80
[7] = endpoint: mean survival time, dose: 200.0 mg/kg/injection, schedule: Q04DX003 (ip), vehicle: saline with Tween-80
[8] = endpoint: mean survival time, dose: 400.0 mg/kg/injection, schedule: Q04DX003 (ip), vehicle: saline with Tween-80
[9] = endpoint: mean survival time, dose: 100.0 mg/kg/injection, schedule: Q04DX003 (ip), vehicle: saline
[10] = endpoint: mean survival time, dose: 200.0 mg/kg/injection, schedule: Q04DX003 (ip), vehicle: saline
[11] = endpoint: mean survival time, dose: 400.0 mg/kg/injection, schedule: Q04DX003 (ip), vehicle: saline

Measured: T/C

O=C(CO)C(OC1OC(CO)C(O)C(O)C1O)C(O)C(O)CO (centres undefined)
inactive: [1] 103 % of control | [2] 97 % of control | [3] 100 % of control

NCC(O)c1ccc(O)c(O)c1 (centres undefined)
inactive: endpoint: mean survival time, dose: 0.5 mg/kg/injection, schedule: Q01DX009 (ip), vehicle: saline 98 % of control | endpoint: mean survival time, dose: 0.75 mg/kg/injection, schedule: Q01DX001 (ip), vehicle: saline 106 % of control | endpoint: mean survival time, dose: 1.0 mg/kg/injection, schedule: Q01DX009 (ip), vehicle: saline 109 % of control | endpoint: mean survival time, dose: 1.5 mg/kg/injection, schedule: Q01DX001 (ip), vehicle: saline 98 % of control | endpoint: mean survival time, dose: 2.0 mg/kg/injection, schedule: Q01DX009 (ip), vehicle: saline 98 % of control | endpoint: mean survival time, dose: 3.0 mg/kg/injection, schedule: Q01DX001 (ip), vehicle: saline 101 % of control | endpoint: mean survival time, dose: 4.0 mg/kg/injection, schedule: Q01DX009 (ip), vehicle: saline 113 % of control | endpoint: mean survival time, dose: 6.0 mg/kg/injection, schedule: Q01DX001 (ip), vehicle: saline 104 % of control | endpoint: mean survival time, dose: 8.0 mg/kg/injection, schedule: Q01DX009 (ip), vehicle: saline 100 % of control | endpoint: mean survival time, dose: 12.0 mg/kg/injection, schedule: Q01DX001 (ip), vehicle: saline 100 % of control

C[N+]1(CCC(c2ccccc2)c2ccccc2)CCCCC1
inactive: endpoint: mean survival time, dose: 12.5 mg/kg/injection, schedule: Q04DX003 (ip), vehicle: saline 96 % of control | endpoint: mean survival time, dose: 25.0 mg/kg/injection, schedule: Q04DX003 (ip), vehicle: saline 104 % of control | endpoint: mean survival time, dose: 50.0 mg/kg/injection, schedule: Q04DX003 (ip), vehicle: saline 102 % of control

CCCCCCCCCCCCCCCCCC[N+]1(C)CCOCC1
inactive: endpoint: mean survival time, dose: 6.25 mg/kg/injection, schedule: Q04DX002 (ip), vehicle: Klucel (hydroxypropylcellulose) (HPC) 95 % of control | endpoint: mean survival time, dose: 12.5 mg/kg/injection, schedule: Q04DX002 (ip), vehicle: Klucel (hydroxypropylcellulose) (HPC) 91 % of control | endpoint: mean survival time, dose: 25.0 mg/kg/injection, schedule: Q04DX002 (ip), vehicle: Klucel (hydroxypropylcellulose) (HPC) 90 % of control and 98 % of control | endpoint: mean survival time, dose: 100.0 mg/kg/injection, schedule: Q04DX002 (ip), vehicle: Klucel (hydroxypropylcellulose) (HPC) 101 % of control

COc1c(C)ccc2c1CCN1C3=C(CCC21)CC1(CC3)OCCO1 (centres undefined)
inactive: [4] 95 % of control | [5] 92 % of control | [6] 89 % of control | [7] 94 % of control | [8] 94 % of control

CCOC(=O)NC12c3ccccc3C(c3ccccc31)C(C(=O)O)C2C(=O)O (centres undefined)
inactive: [4] 90 % of control | [6] 100 % of control | endpoint: mean survival time, dose: 400.0 mg/kg/injection, schedule: Q01DX009 (ip), vehicle: saline with Tween-80 103 % of control

O=P(O)(O)OCC1OC(n2cnc3c(NCc4ccco4)ncnc32)C(O)C1O (centres undefined)
inactive: endpoint: mean survival time, dose: 12.5 mg/kg/injection, schedule: Q01DX005 (ip), vehicle: water 106 % of control | endpoint: mean survival time, dose: 25.0 mg/kg/injection, schedule: Q01DX005 (ip), vehicle: water 106 % of control | endpoint: mean survival time, dose: 50.0 mg/kg/injection, schedule: Q01DX005 (ip), vehicle: water 103 % of control | endpoint: mean survival time, dose: 100.0 mg/kg/injection, schedule: Q01DX005 (ip), vehicle: water 106 % of control

COc1cc2c(c(OC)c1OC)-c1ccc(SC)c(=O)cc1[C@@H](NC1OC(COC(C)=O)C(OC(C)=O)C(OC(C)=O)C1OC(C)=O)CC2 (some centres undefined)
inactive: endpoint: mean survival time, dose: 1.5 mg/kg/injection, schedule: Q01DX009 (ip), vehicle: other 97 % of control | endpoint: mean survival time, dose: 3.0 mg/kg/injection, schedule: Q01DX009 (ip), vehicle: other 97 % of control | endpoint: mean survival time, dose: 6.0 mg/kg/injection, schedule: Q01DX009 (ip), vehicle: other 97 % of control | endpoint: mean survival time, dose: 12.0 mg/kg/injection, schedule: Q01DX009 (ip), vehicle: other 96 % of control | endpoint: mean survival time, dose: 24.0 mg/kg/injection, schedule: Q01DX009 (ip), vehicle: other 96 % of control

CC(C)c1cccc(O)c(=O)c1
inactive: endpoint: mean survival time, dose: 50.0 mg/kg/injection, schedule: Q01DX009 (ip), vehicle: saline with Tween-80 102 % of control | [4] 100 % of control

N/C(=N\N=C(c1ccccc1)c1ccccc1)N[N+](=O)[O-]
inactive: [5] 97 % of control | [7] 100 % of control | [8] 103 % of control

O=C1c2ccccc2C(=O)n2nc3ccccc3c21
inactive: endpoint: median survival time, dose: 50.0 mg/kg/injection, schedule: Q04DX002 (ip), vehicle: saline with Tween-80 100 % of control | endpoint: median survival time, dose: 100.0 mg/kg/injection, schedule: Q04DX002 (ip), vehicle: saline with Tween-80 100 % of control | endpoint: median survival time, dose: 200.0 mg/kg/injection, schedule: Q04DX002 (ip), vehicle: saline with Tween-80 90 % of control | endpoint: median survival time, dose: 400.0 mg/kg/injection, schedule: Q04DX002 (ip), vehicle: saline with Tween-80 100 % of control

C=C1C(=O)O[C@@H]2C[C@@H](C)[C@@H]3C=CC(=O)[C@@]3(C)[C@@H](O)[C@H]12
inactive: endpoint: mean survival time, dose: 8.0 mg/kg/injection, schedule: Q04DX003 (ip), vehicle: saline with Tween-80 117 % of control

Cc1ccc(NC(=O)CI)cc1
inactive: endpoint: mean survival time, dose: 100.0 mg/kg/injection, schedule: Q04DX002 (ip), vehicle: other 102 % of control

NCCCNCCCCNCCCN
inactive: endpoint: median survival time, dose: 24.75 mg/kg/injection, schedule: Q04DX003 (ip), vehicle: saline 101 % of control | endpoint: median survival time, dose: 49.5 mg/kg/injection, schedule: Q04DX003 (ip), vehicle: saline 107 % of control

COc1ccc(C(=O)C(CN(C)C)CN(C)C)cc1
inactive: endpoint: median survival time, dose: 3.12 mg/kg/injection, schedule: Q01DX009 (ip), vehicle: saline 96 % of control | endpoint: median survival time, dose: 6.25 mg/kg/injection, schedule: Q01DX009 (ip), vehicle: saline 103 % of control | endpoint: median survival time, dose: 12.5 mg/kg/injection, schedule: Q01DX009 (ip), vehicle: saline 104 % of control | endpoint: median survival time, dose: 25.0 mg/kg/injection, schedule: Q01DX009 (ip), vehicle: saline 114 % of control

CCCCNC(C)(C)C(SSSC(c1cccs1)C(C)(C)NCCCC)c1cccs1 (centres undefined)
inactive: endpoint: mean survival time, dose: 100.0 mg/kg/injection, schedule: Q01DX009 (ip), vehicle: saline sonified 100 % of control | endpoint: mean survival time, dose: 200.0 mg/kg/injection, schedule: Q01DX009 (ip), vehicle: saline sonified 103 % of control

C/C(=N\O)c1ccc2ccc3ccccc3c2c1
inactive: [1] 100 % of control | [9] 102 % of control | [2] 95 % of control | [10] 100 % of control | [3] 100 % of control | [11] 97 % of control

CSc1nc(NN)n2nccc2n1
inactive: endpoint: median survival time, dose: 50.0 mg/kg/injection, schedule: Q01DX005 (ip), vehicle: saline 104 % of control | endpoint: median survival time, dose: 100.0 mg/kg/injection, schedule: Q01DX005 (ip), vehicle: saline 103 % of control

Nc1cccc(=O)[nH]1
inactive: endpoint: mean survival time, dose: 12.5 mg/kg/injection, schedule: Q01DX009 (ip), vehicle: suspension in saline 96 % of control | endpoint: mean survival time, dose: 25.0 mg/kg/injection, schedule: Q01DX009 (ip), vehicle: suspension in saline 96 % of control and 104 % of control | endpoint: mean survival time, dose: 50.0 mg/kg/injection, schedule: Q01DX009 (ip), vehicle: suspension in saline 95 % of control and 96 % of control | endpoint: mean survival time, dose: 100.0 mg/kg/injection, schedule: Q01DX009 (ip), vehicle: suspension in saline 90 % of control and 96 % of control | endpoint: mean survival time, dose: 200.0 mg/kg/injection, schedule: Q01DX009 (ip), vehicle: suspension in saline 102 % of control and 107 % of control | endpoint: mean survival time, dose: 400.0 mg/kg/injection, schedule: Q01DX009 (ip), vehicle: suspension in saline 104 % of control

CN(C)S(=O)(=O)Oc1ccc(N)cc1
inactive: [5] 103 % of control | [7] 101 % of control | [8] 104 % of control

Cc1ccccc1Sc1cc2ccccc2c2ccccc12
inactive: [9] 97 % of control | [10] 100 % of control | [11] 100 % of control

COc1ccc(C(=O)/C=N/O)cc1
inactive: endpoint: mean survival time, dose: 25.0 mg/kg/injection, schedule: Q04DX003 (ip), vehicle: saline with Tween-80 100 % of control | endpoint: mean survival time, dose: 50.0 mg/kg/injection, schedule: Q04DX003 (ip), vehicle: saline with Tween-80 100 % of control | [5] 95 % of control and 98 % of control

O/N=C/c1ccc(O)cc1O
inactive: [1] 100 % of control | [2] 102 % of control

Cc1nc(N)nc2c1CCC(O)S2 (centres undefined)
inactive: endpoint: mean survival time, dose: 25.0 mg/kg/injection, schedule: Q01DX001 (ip), vehicle: Klucel (hydroxypropylcellulose) (HPC) 96 % of control | endpoint: mean survival time, dose: 50.0 mg/kg/injection, schedule: Q01DX001 (ip), vehicle: Klucel (hydroxypropylcellulose) (HPC) 96 % of control | endpoint: mean survival time, dose: 100.0 mg/kg/injection, schedule: Q01DX001 (ip), vehicle: Klucel (hydroxypropylcellulose) (HPC) 96 % of control
